In patent publication US8748491B2, “Dietary and pharmaceutical compositions containing tricyclic diterpenes and their derivatives and their uses” (priority 2006, dated 2014):

Experiments:
mouse [1] = experiment: Marble burying test; type: in vivo; conditions: mouse; for NUMBER OF MARBLES COVERED BY SAWDUST % change from control / NUMBER OF MARBLES COVERED BY SAWDUST mean ± s.e.m.: Table 5
Protocol: The method applied here follows that described by Broekkamp et al., supra. Mice (n=15 per treatment group) were individually placed in transparent plastic cages (33×21×18 cm) with 5 cm of sawdust on the floor and 25 marbles (diameter 1 cm) grouped in the centre of the cage. A second, up-turned, cage served as a lid. The number of marbles covered by sawdust (by at least two-thirds) was counted at the end of the 30-minute test period. Tests were performed by investigators blind to the drug treatment protocol.
Prior to testing, all test cages and marbles were “impregnated” by leaving 10 naive mice in each cage for 15 minutes. […]
Data were analysed by comparing treated groups with vehicle control using unpaired Student's t-tests.

[2] = molecular target: T1, human serotonin re-uptake transporter (hSERT) (Homo sapiens, UniProt P31645); experiment: Inhibition of tritiated serotonin uptake into transfected HEK-293 cells; type: cell-based; conditions: HEK-293 cells expressing hSERT; 20 nM [3H] serotonin, 40 min, 37° C.; mean ± s.e.m.
T1 construct: host or cells: HEK-293
Description: HEK-293 cells stably expressing the human serotonin re-uptake transporter (hSERT) were obtained from R. Blakely, Vanderbilt University, USA. The cells were routinely grown in Dulbecco's Modified Eagle's Medium (Bioconcept) containing 10% fetal calf serum, penicillin, streptomycin, L-glutamine and the antibiotic G418 and passaged by trypsinisation. On the day of assay, cells from 80% confluent flasks were harvested by gentle washing with warm phosphate buffered saline (PBS). […] Serotonin uptake into the cells was determined by addition of radio-labelled [^3H] serotonin (GE Healthcare) at a concentration of 20 nM, and incubation for 40 minutes at 37° C. with gentle shaking. At the end of this time unincorporated label was removed by filtration though Unifilter 96 GF/B plates (Perkin Elmer) using a Tomtec Mach III M cell harvester. The incorporated serotonin retained on the plates was quantified by liquid scintillation counting using Microscint-40/Topcount (Perkin Elmer).

mouse [3] = experiment: Light dark box test; type: in vivo; conditions: for NUMBER OF CROSSINGS % change from control: mouse
Description: The method, which detects anxiolytic activity, follows that described by Crawley, 1981 Pharmacol. Biochem. Behav., 15:695-699. Anxiolytics increase the time spent in the light compartment.
Animals were placed into the light compartment of a 2-compartment box with one half light and open (25×27×27 cm) and the other half dark and closed (20×27×27 cm). The time spent in each compartment as well as the number of times the animal crosses from one side to the other is scored during a 3-minute test. 15 mice were studied per group. The test was performed blind.
Carnosic acid was evaluated at 3 doses (100, 200, 400 mg/kg BW), administered by oral gavage (p.o.) 24, 5 and 1 hour before the test, and compared with a vehicle control group (corn oil). Carnosic acid was dissolved in corn oil (“vehicle”). Clobazam (32 mg/kg p.o.), administered 1 hour before the test, was used as reference substance. Mice in this group received additional administrations of vehicle at 24 and 5 hours before the test in order to maintain experimental blinding.

T1 sequence (P31645 whole entry): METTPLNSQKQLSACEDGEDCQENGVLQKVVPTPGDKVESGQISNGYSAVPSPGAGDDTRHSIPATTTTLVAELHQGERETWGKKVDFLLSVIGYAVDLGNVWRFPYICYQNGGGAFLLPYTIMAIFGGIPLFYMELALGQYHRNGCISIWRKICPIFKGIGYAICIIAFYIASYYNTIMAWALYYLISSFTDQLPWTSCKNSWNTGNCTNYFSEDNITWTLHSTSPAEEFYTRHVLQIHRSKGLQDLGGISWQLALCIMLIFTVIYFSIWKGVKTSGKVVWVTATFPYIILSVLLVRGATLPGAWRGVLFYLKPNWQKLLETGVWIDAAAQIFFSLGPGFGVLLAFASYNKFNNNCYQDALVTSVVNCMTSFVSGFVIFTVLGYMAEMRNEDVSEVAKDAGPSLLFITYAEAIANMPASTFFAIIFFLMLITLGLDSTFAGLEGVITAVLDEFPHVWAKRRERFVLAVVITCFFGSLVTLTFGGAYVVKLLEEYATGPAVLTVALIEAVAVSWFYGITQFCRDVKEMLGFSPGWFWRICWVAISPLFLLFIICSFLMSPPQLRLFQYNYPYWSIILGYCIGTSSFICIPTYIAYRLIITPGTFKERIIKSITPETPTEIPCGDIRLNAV

Structure (SMILES): CC(C)c1cc2c(c(O)c1O)[C@@]1(C(=O)O)CCCC(C)(C)[C@@H]1CC2 [Carnosic acid, carnosic acid]
- NUMBER OF MARBLES COVERED BY SAWDUST % change from control (mouse [1]; 3 mg/kg i.p. −30 min): −8%
- NUMBER OF MARBLES COVERED BY SAWDUST mean ± s.e.m. (mouse [1]; 3 mg/kg i.p. −30 min): 21.9 ± 1.3
- NUMBER OF MARBLES COVERED BY SAWDUST % change from control (mouse [1]; 10 mg/kg i.p. −30 min): −4%
- NUMBER OF MARBLES COVERED BY SAWDUST mean ± s.e.m. (mouse [1]; 10 mg/kg i.p. −30 min): 22.7 ± 0.5
- NUMBER OF MARBLES COVERED BY SAWDUST % change from control (mouse [1]; 30 mg/kg i.p. −30 min): −63%
- NUMBER OF MARBLES COVERED BY SAWDUST mean ± s.e.m. (mouse [1]; 30 mg/kg i.p. −30 min): 8.7 ± 2.9
- marble burying behaviour (in words) (mouse [1]; highest dose tested (30 mg/kg) i.p.): clearly and significantly reduced marble burying behaviour
- IC50 [2]: 36.4 ± 6.8 µM
- NUMBER OF CROSSINGS % change from control (mouse [3]; 100 mg/kg p.o. −24, −5, −1 h): +17%
- NUMBER OF CROSSINGS % change from control (mouse [3]; 200 mg/kg p.o., −24, −5, −1 h): −21%
- NUMBER OF CROSSINGS % change from control (mouse [3]; 400 mg/kg p.o. −24, −5, −1 h): +23%
- number of crossings (in words) (mouse [3]; mouse, 100, 200 and 400 mg/kg p.o.): did not affect
